# Laboratory results published in article PMC8073907, “Peptide targeting of lysophosphatidylinositol-sensing GPR55 for osteoclastogenesis tuning” (Cell Communication and Signaling : CCS, 2021).
# How the values were obtained:
# [1] = test system: HA-GPR55 in HEK293T cells; test: LPI-induced ERK1/2 activation in GPR55-transfected HEK293T cells; assay type: cell-based, human; conditions: 10 µM LPI
# Source text: The construct of haemagglutinin (HA)-tagged human GPR55 in pcDNA3 (HA-GPR55) was a gift from Prof. K. Mackie, Indiana University, Bloomington, IN, USA [39], while the construct ss-3 × HA-GPR55 in pcDNA3.1 (ssGPR55) with a triple HA tag at the N-terminus and an optimised signal sequence (ss, derived from amino acids 1–33 of the human growth hormone: […]) for efficient surface expression was from Prof. A. Irving, Dundee University, UK [40]. For both constructs, mutations were introduced by site-directed mutagenesis using QuickChange kits (Stratagene, La Jolla, CA, USA), according to the manufacturer instructions. The primers for the K80A mutation were 5′-[…]-3′ and 5′-[…]-3′ (Tm, 70.6 °C), and for Q87A were 5′-[…]-3′ and 5′-[…]-3′ (Tm, 73.1 °C).
# For GPR55 overexpression, HEK293T cells were plated in their growth medium without antibiotics at 2.6 × 10^5 cells/well in 12-well plates, and 24 h later, the cells were transfected with 1 µg cDNA/well using Lipofectamine 2000, according to the manufacturer instructions. The pcDNA3 empty vector or that coding for human HA-GPR55 wild-type or its mutants HA-GPR55-K80A and HA-GPR55-Q87A were used.
# Twenty-four hours after transfection (HEK293T, HeLa cells or clones) or 72 h after interference (RAW264.7 cells), the cells were washed twice with HBSS^++, serum deprived (HEK293T cells for 4 h in DMEM; HeLa cells and clones for 2 h in MEM plus 2 mM glutamine and 25 mM HEPES; RAW264.7 cells for 2 h in DMEM), washed once again with HBSS^++, incubated in stimulation buffer (HBSS^++ with 10 mM HEPES, 0.4% faf-BSA for HEK293T cells; HBSS^++ with 25 mM HEPES and 0.01% faf-BSA for HeLa cells, clones, and RAW264.7 cells) in the absence or presence of stimuli, at 37 °C for the indicated times. […]
# Protein lysates were subjected to SDS-PAGE, and after electrophoresis, the proteins were transferred to a nitrocellulose membrane (PerkinElmer Life Science, Boston, MA, USA). […] The membranes were then washed twice with T-TBS and once with TBS for 5 min, and the signals were detected by ECL (Amersham Pharmacia, Piscataway, NJ, USA). […]
# [2] = test system: RAW264.7 cells; test: RANKL-induced transcription of osteoclastogenesis markers in RAW264.7 cells (real-time PCR); assay type: cell-based, murine
# Procedure, shortened: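 RAW264.7 cells in α-MEM/10% FBS were treated with 15–30 ng/mL RANKL, refreshed every 48 h, with or without GPR55 ligands (e.g. 0.5 µM ML-191, 30 µM O1918, 1 µM LPI) or 150 nM peptide-P1. Marker mRNA was quantified by SYBR Green real-time PCR normalised to β2-microglobulin; Gpr55 was knocked down by siRNA where applied.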
substance,measurement,setting,value
lysophosphatidylinositol [LPI],activation kinetics of ERK1/2,"[1]; HEK293T with HA-GPR55 wild-type, K80A or Q87A",comparable activation kinetics of ERK1/2 in all of the transfectants
same,"ERK1/2 phosphorylation, GPR55-transfected and empty-vector-transfected cells",[1]; HEK293T,increased phosphorylation of ERK1/2
same,further stimulation of RANKL-induced Trap transcription,"[2]; 1 µM soybean LPI, 24 h",0.2 -fold
same,increase in RANKL-induced Cathepsin-k mRNA,"[2]; 1 µM soybean LPI, 24 h",1.4 -fold
same,further stimulation of RANKL-induced Ctr transcription,"[2]; 1 µM soybean LPI, 48 h",2.4 -fold
same,further stimulation of RANKL-induced Nfatc1 transcription,"[2]; 1 µM soybean LPI, 48 h",1.1 -fold
same,further stimulation of RANKL-induced Trap transcription,"[2]; 1 µM soybean LPI, 48 h",0.7 -fold
same,increase in RANKL-induced Cathepsin-k mRNA,"[2]; 1 µM soybean LPI, 48 h",1.2 -fold
same,further stimulation of RANKL-induced Ctr transcription,"[2]; 1 µM soybean LPI, 72 h",1.6 -fold
same,further stimulation of RANKL-induced Trap transcription,"[2]; 1 µM soybean LPI, 72 h",0.7 -fold
same,modulation of RANKL-induced Cathepsin-k transcription,"[2]; 1 µM soybean LPI, 72 h",no modulation
same,effect on Mmp-9 transcription,"[2]; 1 µM soybean LPI, any of the times analysed",no effects on Mmp-9 transcription
same,effect on osteoclastogenesis marker transcription after washout,"[2]; LPI washout after the initial 24 h, data not shown",did not produce any significant effects
same,"RANKL-induced transcription of Ctr, si-NT versus si-GPR55 cells","[2]; RANKL 15 ng/mL, 72 h, 1 µM soybean LPI or 1 µM ML-184","similarly increased RANKL-induced transcription of Ctr only in precursor cells treated with non-targeting siRNAs, and not in those silenced for GPR55"
